Reference: article PMC6736568, “Discovery of Novel Anti-cryptosporidial Activities From Natural Products by in vitro High-Throughput Phenotypic Screening” (Frontiers in Microbiology, 2019)
Structures can show the parent of a compound that is named as a salt. Where two headings read alike, the source gives them in different places.

How the values were obtained:
[1] = tested on: Cryptosporidium parvum; assay: qRT-PCR assay of the growth of C. parvum in vitro in HCT-8 host cells (primary and secondary screening, EC50); assay type: cell-based; details: Cryptosporidium parvum, HCT-8; for inhibition at 3.3 µM: secondary screening at 3.3 uM, read-out: % Inhibition (3.3 uM)
[2] = tested on: HCT-8 host cells (Hs18S)
[3] = in vitro
[4] = primary screening at 10 uM, read-out: Inhibition (%)
[5] = primary screening at 10 uM, treated vs control

COc1ccc(Cc2nccc3cc(OC)c(OC)cc23)cc1OC [PAPAVERINE HYDROCHLORIDE]
inhibition at 10 µM [1, 4]: 56.2%
Hs18S ΔCT [2]: 0.57
cytotoxicity at 41 h, 10 µM ([3]; human): 32.7%

NC[C@@H]1O[C@H](O[C@H]2[C@@H](O)[C@H](O[C@@H]3[C@@H](O)[C@H](N)C[C@H](N)[C@H]3O[C@H]3O[C@H](CO)[C@@H](O)[C@H](O)[C@H]3N)O[C@@H]2CO)[C@H](N)[C@@H](O)[C@@H]1O [PAROMOMYCIN SULFATE]
inhibition at 10 µM [1, 4]: 19.7%
Hs18S ΔCT ([2]; human, 41 h, 10 μM): 0.08
cytotoxicity at 41 h, 10 µM ([3]; human): 5.5%

O=C1C=C2C(=CCOC2O)O1 (stereo not shown) [PATULIN]
inhibition at 10 µM [1, 4]: 91.4%
inhibition at 3.3 µM [1]: 10%
Hs18S ΔCT [2, 5]: 0.81
cytotoxicity at 10 µM [3]: 43%

COc1ccc(-c2cc(=O)c3c(O)c(OC)c(O[C@@H]4O[C@H](CO[C@@H]5O[C@@H](C)[C@H](O)[C@@H](O)[C@H]5O)[C@@H](O)[C@H](O)[C@H]4O)cc3o2)cc1 [PECTOLINARIN]
inhibition at 10 µM [1, 4]: -21%
Hs18S ΔCT ([2]; human, 41 h, 10 μM): 1.99
cytotoxicity at 41 h, 10 µM ([3]; human): 74.8%

C[C@@]12C[C@@]3(O)O[C@@H](O1)[C@]1(COC(=O)c4ccccc4)[C@H]3C[C@@]12O[C@@H]1O[C@H](CO)[C@@H](O)[C@H](O)[C@H]1O [PEONIFLORIN]
inhibition at 10 µM [1, 4]: -19.9%
Hs18S ΔCT ([2]; human, 41 h, 10 μM): -0.11
cytotoxicity at 41 h, 10 µM ([3]; human): -7.6%

COc1ccc(C(C)=O)c(OC)c1 [PEONOL METHYL ETHER]
inhibition at 10 µM [1, 4]: 18.9%
Hs18S ΔCT ([2]; human, 41 h, 10 μM): -0.31
cytotoxicity at 41 h, 10 µM ([3]; human): -24.3%

C=C(C)[C@@H]1CC=C(C(=O)O)CC1 [PERILLIC ACID (-)]
inhibition at 10 µM [1, 4]: -16.2%
Hs18S ΔCT [2, 5]: 0.14
cytotoxicity at 10 µM [3]: 8.9%

C=C(C)[C@@H]1CC=C(CO)CC1 [PERILLYL ALCOHOL]
inhibition at 10 µM [1, 4]: 29.5%
Hs18S ΔCT ([2]; human, 41 h, 10 μM): -0.35
cytotoxicity at 41 h, 10 µM ([3]; human): -27.4%

OCC(O)C(O)C(O)C(O)C(O)CO (stereo not shown) [PERSEITOL]
inhibition at 10 µM [1, 4]: 11.3%
Hs18S ΔCT ([2]; human, 41 h, 10 μM): -0.23
cytotoxicity at 41 h, 10 µM ([3]; human): -17.1%

CC(C)=CCc1c(O)cc2oc(C)cc(=O)c2c1O [PEUCENIN]
inhibition at 10 µM [1, 4]: 2.08%
Hs18S ΔCT ([2]; human, 41 h, 10 μM): -0.39
cytotoxicity at 41 h, 10 µM ([3]; human): -31.3%

NCC(=O)c1ccccc1 [PHENACYLAMINE HYDROCHLORIDE]
inhibition at 10 µM [1, 4]: 9.11%
Hs18S ΔCT ([2]; human, 41 h, 10 μM): 1.22
cytotoxicity at 41 h, 10 µM ([3]; human): 57%

O=C(CCc1ccc(O)cc1)c1c(O)cc(O)cc1O [PHLORETIN]
inhibition at 10 µM [1, 4]: -5.73%
Hs18S ΔCT ([2]; human, 41 h, 10 μM): -0.15
cytotoxicity at 41 h, 10 µM ([3]; human): -10.8%

O=C(CCc1ccc(O)cc1)c1c(O)cc(O)cc1O[C@@H]1O[C@H](CO)[C@@H](O)[C@H](O)[C@H]1O [PHLORIDZIN]
inhibition at 10 µM [1, 4]: 28.9%
Hs18S ΔCT ([2]; human, 41 h, 10 μM): -0.08
cytotoxicity at 41 h, 10 µM ([3]; human): -5.8%

COc1cc(O)c2c(c1)C(=O)c1cc(C)cc(O)c1C2=O [PHYSCION]
inhibition at 10 µM [1, 4]: -57.5%
Hs18S ΔCT [2, 5]: 0.20
cytotoxicity at 10 µM [3]: 12.9%

CNC(=O)Oc1ccc2c(c1)[C@]1(C)CCN(C)[C@@H]1N2C [PHYSOSTIGMINE SALICYLATE]
inhibition at 10 µM [1, 4]: -4.89%
Hs18S ΔCT [2, 5]: -0.12
cytotoxicity at 10 µM [3]: -8.6%

OC[C@H]1O[C@@H](Oc2cc(O)cc(/C=C/c3ccc(O)cc3)c2)[C@H](O)[C@@H](O)[C@@H]1O [PICEID]
inhibition at 10 µM [1, 4]: 4.1%
Hs18S ΔCT ([2]; human, 41 h, 10 μM): -0.36
cytotoxicity at 41 h, 10 µM ([3]; human): -28.7%

COc1cc([C@@H]2c3cc4c(cc3[C@H](O)[C@H]3COC(=O)[C@@H]23)OCO4)cc(OC)c1OC [PICROPODOPHYLLIN]
inhibition at 10 µM [1, 4]: 79.4%
inhibition at 3.3 µM [1]: 56%
Hs18S ΔCT [2, 5]: 0.94
cytotoxicity at 41 h, 10 µM [3]: 47.8%

CC(C)(O)[C@@H]1[C@H]2OC(=O)[C@@H]1[C@]1(O)C[C@H]3O[C@]34C(=O)O[C@H]2[C@]14C [PICROTIN]
inhibition at 10 µM [1, 4]: -1.94%
Hs18S ΔCT [2, 5]: -0.20
cytotoxicity at 10 µM [3]: -14.8%

C=C(C)[C@@H]1[C@H]2OC(=O)[C@@H]1[C@]1(O)C[C@H]3O[C@]34C(=O)O[C@H]2[C@]14C [PICROTOXININ]
inhibition at 10 µM [1, 4]: 23.1%
Hs18S ΔCT [2, 5]: -0.81
cytotoxicity at 10 µM [3]: -75.3%

CC[C@@H]1C(=O)OC[C@@H]1Cc1cncn1C [PILOCARPINE NITRATE]
inhibition at 10 µM [1, 4]: -30.2%
Hs18S ΔCT ([2]; human, 41 h, 10 μM): -0.10
cytotoxicity at 41 h, 10 µM ([3]; human): -7.3%

COc1c(OC)c2occc2c2oc(=O)ccc12 [PIMPINELLIN]
inhibition at 10 µM [1, 4]: 43.6%
Hs18S ΔCT ([2]; human, 41 h, 10 μM): 0.21
cytotoxicity at 41 h, 10 µM ([3]; human): 13.3%

O=C(O)/C=C/C=C/c1ccc2c(c1)OCO2 [PIPERIC ACID]
inhibition at 10 µM [1, 4]: 0.79%
Hs18S ΔCT [2, 5]: -0.02
cytotoxicity at 10 µM [3]: -1.7%

O=C(/C=C/C=C/c1ccc2c(c1)OCO2)N1CCCCC1 [PIPERINE]
inhibition at 10 µM [1, 4]: -12.1%
Hs18S ΔCT [2, 5]: 0.03
cytotoxicity at 10 µM [3]: 2.1%

O=C(O)c1ccc2c(c1)OCO2 [PIPERONYLIC ACID]
inhibition at 10 µM [1, 4]: 30.3%
Hs18S ΔCT [2, 5]: -0.04
cytotoxicity at 10 µM [3]: -3.1%

COc1cc(/C=C/C(=O)N2CCC=CC2=O)cc(OC)c1OC [PIPLARTINE]
inhibition at 10 µM [1, 4]: 73.7%
inhibition at 3.3 µM [1]: 10%
Hs18S ΔCT [2, 5]: 0.33
cytotoxicity at 10 µM [3]: 20.5%

O=C(O)[C@@H](O)[C@](O)(Cc1ccc(O)cc1)C(=O)O [PISCIDIC ACID]
inhibition at 10 µM [1, 4]: -5.12%
Hs18S ΔCT [2, 5]: -0.03
cytotoxicity at 10 µM [3]: -1.7%

CC1=CC(=O)c2c(O)cccc2C1=O [PLUMBAGIN]
inhibition at 10 µM [1, 4]: 95.1%
inhibition at 3.3 µM [1]: 13%
Hs18S ΔCT ([2]; human, 41 h, 10 μM): 1.26
cytotoxicity at 41 h, 10 µM ([3]; human): 58.1%

CC(C)=CCOc1cc2oc(=O)ccc2cc1O [PRENYLETIN]
inhibition at 10 µM [1, 4]: -6.72%
Hs18S ΔCT ([2]; human, 41 h, 10 μM): -0.59
cytotoxicity at 41 h, 10 µM ([3]; human): -50%

COC(=O)[C@]1(C)CC[C@]2(C)CC[C@]3(C)C4=CC=C5C(=CC(=O)C(O)=C5C)[C@]4(C)CC[C@@]3(C)[C@@H]2C1 [PRISTIMERIN]
inhibition at 10 µM [1, 4]: 94.7%
inhibition at 3.3 µM [1]: 30%
Hs18S ΔCT [2, 5]: 0.55
cytotoxicity at 10 µM [3]: 31.6%

C=CC1=C(C)c2cc3[nH]c(cc4nc(cc5[nH]c(cc1n2)c(C)c5CCC(=O)O)C(CCC(=O)O)=C4C)c(C)c3C=C [PROTOPORPHYRIN IX]
inhibition at 10 µM [1, 4]: -20.6%
Hs18S ΔCT ([2]; human, 41 h, 10 μM): 0.00
cytotoxicity at 41 h, 10 µM ([3]; human): -0.1%

CC1=CCc2c(cc3oc(C)cc(=O)c3c2O)OC1 [PTAEROXYLIN]
inhibition at 10 µM [1, 4]: -20.7%
Hs18S ΔCT ([2]; human, 41 h, 10 μM): -0.13
cytotoxicity at 41 h, 10 µM ([3]; human): -9.7%

O=c1c(-c2ccc(O)cc2)coc2c([C@@H]3O[C@H](CO)[C@@H](O)[C@H](O)[C@H]3O)c(O)ccc12 [PUERARIN]
inhibition at 10 µM [1, 4]: -23%
Hs18S ΔCT [2, 5]: -0.46
cytotoxicity at 41 h, 10 µM ([3]; human): -37.4%

O=C1c2ccccc2C(=O)c2c(O)c(O)cc(O)c21 [PURPURIN]
inhibition at 10 µM [1, 4]: -37.2%
Hs18S ΔCT [2, 5]: -0.19
cytotoxicity at 41 h, 10 µM ([3]; human): -14.3%

O=c1c(O)cccc2cc(O)c(O)c(O)c12 [PURPUROGALLIN]
inhibition at 10 µM [1, 4]: -12.6%
Hs18S ΔCT ([2]; human, 41 h, 10 μM): -0.01
cytotoxicity at 41 h, 10 µM ([3]; human): -0.7%

NCCCCN [PUTRESCINE DIHYDROCHLORIDE]
inhibition at 10 µM [1]: 28.7%
Hs18S ΔCT [2]: -0.04
cytotoxicity at 10 µM [3]: -3%

CC[C@@]1(O)C[C@H](O[C@H]2C[C@H](N(C)C)[C@H](O)[C@H](C)O2)c2c(cc3c(c2O)C(=O)c2c(O)ccc(O)c2C3=O)[C@H]1C(=O)OC [PYRROMYCIN]
inhibition at 10 µM [1, 4]: -46.1%
Hs18S ΔCT [2, 5]: 0.35
cytotoxicity at 10 µM [3]: 21.5%

COC1=C[C@@H](C)[C@@H]2C[C@H]3OC(=O)C[C@H]4C(C)=C(OC)C(=O)[C@H]([C@@]2(C)C1=O)[C@@]34C [QUASSIN]
inhibition at 10 µM [1, 4]: 29.4%
Hs18S ΔCT ([2]; human, 41 h, 10 μM): 0.08
cytotoxicity at 41 h, 10 µM ([3]; human): 5.1%

CO[C@H]1[C@H](O)[C@@H](O)[C@H](O)[C@H](O)[C@H]1O [QUEBRACHITOL]
inhibition at 10 µM [1, 4]: -39%
Hs18S ΔCT ([2]; human, 41 h, 10 μM): -0.16
cytotoxicity at 41 h, 10 µM ([3]; human): -11.4%

O=c1c(O)c(-c2ccc(O)c(O)c2)oc2cc(O)cc(O)c12 [QUERCETIN]
inhibition at 10 µM [1, 4]: 78.4%
inhibition at 3.3 µM [1]: -27%
Hs18S ΔCT [2, 5]: 0.34
cytotoxicity at 10 µM [3]: 21.1%

C[C@@H]1O[C@@H](Oc2c(-c3ccc(O)c(O)c3)oc3cc(O)cc(O)c3c2=O)[C@H](O)[C@H](O)[C@H]1O [QUERCITRIN]
inhibition at 10 µM [1, 4]: 3.89%
Hs18S ΔCT [2, 5]: -0.65
cytotoxicity at 10 µM [3]: -57.2%

O=C(O)[C@]1(O)C[C@@H](O)[C@@H](O)[C@H](O)C1 [QUINIC ACID]
inhibition at 10 µM [1, 4]: 69.4%
inhibition at 3.3 µM [1]: -6%
Hs18S ΔCT ([2]; human, 41 h, 10 μM): 0.23
cytotoxicity at 41 h, 10 µM ([3]; human): 14.6%
